According to the NIST ThermoML archive (doi:10.1016/j.jct.2012.02.037):

Columns and labels:
[1] = 303.15 K; 101.33 kPa; Liquid; Vibrating tube method
[2] = refractive index (Na D-line) (dimensionless); details: 303.15 K; 101.33 kPa; Liquid; Standard Abbe refractometry
[3] = excess molar enthalpy (molar enthalpy of mixing); xn = mol fraction of the nth substance listed; details: 300 K, 101 kPa, Liquid, Flow calorimetry

OC1CCCCC1 [cyclohexanol]
Details | mass density [kg/m3] | refractive index
[1] | 941.36 | –
[2] | – | 1.4632

OC1CCCCC1 [cyclohexanol] + CCO
[3]
Details | excess molar enthalpy [kJ/mol]
x1 = 0.0883 | 0.0686
x1 = 0.1688 | 0.118
x1 = 0.2501 | 0.147
x1 = 0.337 | 0.166
x1 = 0.456 | 0.176
x1 = 0.5436 | 0.177
x1 = 0.6255 | 0.164
x1 = 0.7119 | 0.145
x1 = 0.8026 | 0.117
x1 = 0.9062 | 0.0671

CCO [ethanol]
Details | mass density [kg/m3] | refractive index
[1] | 780.82 | –
[2] | – | 1.358

CCCCO [butan-1-ol]
Details | mass density [kg/m3] | refractive index
[1] | 801.98 | –
[2] | – | 1.3962

OC1CCCCC1 [cyclohexanol] + CO
[3]
Details | excess molar enthalpy [kJ/mol]
x1 = 0.0742 | 0.104
x1 = 0.1422 | 0.154
x1 = 0.2234 | 0.196
x1 = 0.2948 | 0.213
x1 = 0.4871 | 0.215
x1 = 0.5587 | 0.194
x1 = 0.6333 | 0.17
x1 = 0.7266 | 0.133
x1 = 0.8274 | 0.0822
x1 = 0.9162 | 0.0424

CO [methanol]
Details | mass density [kg/m3] | refractive index
[1] | 781.87 | –
[2] | – | 1.3255

CC(C)O [propan-2-ol]
Details | mass density [kg/m3] | refractive index
[1] | 776.71 | –
[2] | – | 1.3741

OC1CCCCC1 [cyclohexanol] + CC(C)O
[3]
Details | excess molar enthalpy [kJ/mol]
x1 = 0.0817 | 0.0678
x1 = 0.1653 | 0.116
x1 = 0.2454 | 0.149
x1 = 0.3436 | 0.179
x1 = 0.5462 | 0.195
x1 = 0.6326 | 0.189
x1 = 0.7173 | 0.169
x1 = 0.8036 | 0.124
x1 = 0.9097 | 0.0721

CCCO [propan-1-ol]
Details | mass density [kg/m3] | refractive index
[1] | 795.53 | –
[2] | – | 1.3821

OC1CCCCC1 [cyclohexanol] + CCC(C)O
[3]
Details | excess molar enthalpy [kJ/mol]
x1 = 0.0831 | 0.0468
x1 = 0.0874 | 0.0489
x1 = 0.1613 | 0.0793
x1 = 0.1704 | 0.0841
x1 = 0.2787 | 0.119
x1 = 0.3304 | 0.127
x1 = 0.4131 | 0.14
x1 = 0.5657 | 0.15
x1 = 0.6512 | 0.152
x1 = 0.7441 | 0.136
x1 = 0.7557 | 0.134
x1 = 0.8271 | 0.103
x1 = 0.8352 | 0.0997
x1 = 0.9129 | 0.0535
x1 = 0.9201 | 0.0531

OC1CCCCC1 [cyclohexanol] + CCCCO
[3]
Details | excess molar enthalpy [kJ/mol]
x1 = 0.0976 | 0.0374
x1 = 0.1867 | 0.0599
x1 = 0.3025 | 0.0895
x1 = 0.3622 | 0.101
x1 = 0.4484 | 0.113
x1 = 0.5609 | 0.117
x1 = 0.6402 | 0.117
x1 = 0.7119 | 0.109
x1 = 0.7842 | 0.0922
x1 = 0.785 | 0.0935
x1 = 0.8549 | 0.0705
x1 = 0.8747 | 0.0591
x1 = 0.9059 | 0.0462

CCC(C)O (configuration not stated) [butan-2-ol]
Details | mass density [kg/m3] | refractive index
[1] | 798.58 | –
[2] | – | 1.394

OC1CCCCC1 [cyclohexanol] + CCCO
[3]
Details | excess molar enthalpy [kJ/mol]
x1 = 0.0808 | 0.0244
x1 = 0.1568 | 0.0445
x1 = 0.2326 | 0.0631
x1 = 0.3085 | 0.0731
x1 = 0.3888 | 0.0843
x1 = 0.4614 | 0.0946
x1 = 0.547 | 0.0989
x1 = 0.6359 | 0.0964
x1 = 0.7223 | 0.0859
x1 = 0.8063 | 0.0696
x1 = 0.901 | 0.0409
